Tested on: X fescue in a Kentucky blue grass mix
Assay: Field trial, prevention or suppression of grass seedhead production, postemergence foliar application
Assay type: in vivo
Details: 12 days after application, scale 0-100% vs untreated control
Method: Field trials were conducted with applications made to established pastures having X fescue in a Kentucky blue grass mix. The target plants were treated with postemergence foliar applications when they were approximately 6-10 inches tall. All treatments were applied using a randomized complete block trial design, with four replications per treatment.
Treatments consisted of aminocyclopyrachlor in acid form and metsulfuron-methyl, each in water and applied alone or in combination. Spray solutions were prepared using an appropriate amount of dilution to form a 1 liter (L) aqueous spray solution with active ingredients in single and two-way combinations. Formulated compounds were applied to the plant material with a backpack sprayer equipped with 8003 flat fan nozzles calibrated to deliver 20 gallons per acre (gal/acre) or 187 liters per hectare (L/ha) at a spray height of 15 inches (38.1 centimeters (cm)) above the grass.
The treated plots and control plots were rated blind at various intervals after application. […]
Colby's equation was used to determine the seedhead-suppressant effects expected from the mixtures, as described above. The results were measured at 12 days after the first application of the compositions. […]

Compound	Mean % seedhead suppression (Aminocyclopyrachlor alone, 70 g ae/ha) [%]	Mean % seedhead suppression (Metsulfuron-Methyl alone, 13 g ae/ha) [%]
Nc1nc(C2CC2)nc(C(=O)O)c1Cl [Aminocyclopyrachlor, 6-amino-5-chloro-2-cyclopropylpyrimidine-4-carboxylic acid]	5.0	
Metsulfuron-Methyl		80.0

— patent US20140235444A1, “SYNERGISTIC SUPRESSION OF GRASS SEEDHEAD PRODUCTION FROM APPLICATIONS OF AMINOCYCLOPYRACHLOR AND METSULFURON” (Dow AgroSciences LLC, priority 2013, published 2014)
